Laboratory results from patent publication US12479816B2, “20-HETE formation inhibitors” (UNIVERSITY OF PITTSBURGH—OF THE COMMONWEALTH SYSTEM OF …, priority 2019, dated 2025).

Legend:
[1] = test system: MDR1 (P-gp); experiment: BBB penetration potential, MDR1-MDCK permeability; assay type: in vitro ADME; conditions: dog; for Papp A→B at 120 min, 5 μM: apical to basolateral, pH 7.4, read-out: BBB penetration potential MDCK A-B 10−6 cm/s; for Papp B→A at 120 min, 5 μM: basolateral to apical, pH 7.4, read-out: BBB penetration potential MDCK B-A 10−6 cm/s
Experimental: BBB penetration potential assessment data in Table 1 was obtained as follows. MDR1-MDCK cell monolayers were grown to confluence on collagen-coated, microporous membranes in 12-well assay plates. Atenolol, propranolol and digoxin were used as control to assess plate quality. The permeability assay buffer was Hanks' balanced salt solution containing 10 mM HEPES and 15 mM glucose at a pH of 7.4. The buffer in the receiver chamber also contained 1% bovine serum albumin. The dosing solution concentration was 5 μM of test article in the assay buffer. Cell monolayers were dosed on the apical side (A-to-B) or basolateral side (B-to-A) and incubated at 37° C. with 5% CO2 in a humidified incubator. Samples were taken from the donor and receiver chambers at 120 minutes. Each determination was performed in duplicate the flux of lucifer yellow was also measured post-experimentally for each monolayer to ensure no damage was inflicted to the cell monolayers during the flux period. All samples were assayed by LC-MS/MS using electrospray ionization using a PE SCIEX API 4000 spectrometer and total run time of 1 min. Analytical method/conditions were: Liquid Chromatography Column: Waters ACQUITY UPLC BEH Phenyl 30×2.1 mm, 1.7 m; M.P. Buffer: 25 mM ammonium formate buffer, pH 3.5; Aqueous Reservoir (A): 90% water, 10% buffer; Organic Reservoir (B): 90% acetonitrile, 10% buffer; Flow Rate: 0.7 mL/minute; gradient program: 99% A (t=0 min), 1% A (t=0.65 min), 1% A (t=0.75 min), 99% A (t=0.8 min), 99% A (t=1 min); 5 μL injection volume
The apparent permeability (Papp) and percent recovery were calculated as follows: Papp=(dCr/dt)×Vr/(A×CA) (1) Percent Recovery=100×((Vr×Cr^final)+(Vd×Cd^final))/(Vd×CN) (2)
wherein: • dCr/dt is the slope of the cumulative concentration in the receiver compartment versus time in μMs^−1; • Vr is the volume of the receiver compartment in cm^3; • Vd is the volume of the donor compartment in cm^3; • A is the area of the insert (1.13 cm^2 for 12-well); • CA is the average of the nominal dosing concentration and the measured 120 minute donor concentration in μM; • CN is the nominal concentration of the dosing solution in μM; • Cr^final is the cumulative receiver concentration in μM at the end of the incubation period; • Cd^final is the concentration of the donor in μM at the end of the incubation period. Efflux ratio (ER) is defined as Papp (B-to-A)/Papp (A-to-B) Interpretation Brain Penetration Potential Classification: • Papp (A-to-B)≥3.0 and ER<3.0: High • Papp (A-to-B)≥3.0 and 10>ER≥3.0: Moderate • Papp (A-to-B)≥3.0 and ER≥10, or Papp (A-to-B)<3.0 Low

[2] = test system: 20-HETE formation (CYP4) in RLM; experiment: IC50 determination, 20-HETE formation in RLM; assay type: biochemical, rat; conditions: RLM 300 μg/ml, AA 100 μM, 12 concentrations
Experimental: Microsomal incubations contained HLM, RLM (300 μg/ml), AA (100 μM), NADPH (1 mM) and test compounds at 12 concentrations (0.1 nM-50 μM) in a 1 ml total volume in microsomal incubation buffer (0.12 M potassium phosphate buffer containing 5 mM magnesium chloride). Reaction was started by adding NADPH to the incubates and was carried out at 37° C. in a shaking water bath for 20 min. Reaction was stopped by placing tubes on ice, followed by adding 12.5 μl 20-HETE-d6 as internal standard to each sample. Microsomal incubations were extracted with 3 ml ethyl ether twice, dried down under nitrogen gas and reconstituted in 125 μl 80:20 methanol:deionized H2O for analysis. 20-HETE formation was quantified using the validated UPLC-MS/MS assay described above and normalized by vehicle group. HET0016 (250 nM) was used as positive control. Incubates without NADPH group served as the negative control. IC50 was determined by fitting the dose-response curve using Graphpad Prism nonlinear regression.

| SMILES | Papp A→B at 120 min, 5 μM [1] [×10⁻⁶ cm/s] | Papp B→A at 120 min, 5 μM [1] [×10⁻⁶ cm/s] | IC50 [2] [nM] |
| --- | --- | --- | --- |
| c1ccc(CC2CCN(c3cn[nH]c3)CC2)cc1 [Compound 3, 4-Benzyl-1-(1H-pyrazol-4-yl)piperidine] | 62 | 60 | – |
| CC(=O)N(C)c1ccc(C2CCN(c3cn[nH]c3)CC2)cc1 [Compound 28, N-(4-(1-(1H-Pyrazol-4-yl)piperidin-4-yl)phenyl)-N-methylacetamide] | 18.4 | 40.2 | – |
| Clc1ccc(CC2CCN(c3cn[nH]c3)CC2)cc1 [Compound 93, 4-(4-Chlorobenzyl)-1-(1H-pyrazol-4-yl)piperidine] | 44.3 | 40 | 120 |
| O=C1CCCN1c1ccc(C2CCN(c3cn[nH]c3)CC2)cc1 [Compound 100, 1-(4-(1-(1H-Pyrazol-4-yl)piperidin-4-yl)phenyl)pyrrolidin-2-one] | 22.2 | 46.9 | 570 |

Other lines, results leading:

| Papp A→B at 120 min, 5 μM [1] [×10⁻⁶ cm/s] | Papp B→A at 120 min, 5 μM [1] [×10⁻⁶ cm/s] | IC50 [2] [nM] | SMILES |
| --- | --- | --- | --- |
| 32 | 25.7 | – | COc1ccc(C2CCN(c3cn[nH]c3)CC2)cc1 [Compound 20, 4-(4-Methoxyphenyl)-1-(1H-pyrazol-4-yl)piperidine] |
| 5.16 | 41.6 | 720 | O=C1CCCN1Cc1ccc(C2CCN(c3cn[nH]c3)CC2)cc1 [Compound 83, 1-(4-(1-(1H-Pyrazol-4-yl)piperidin-4-yl)benzyl)pyrrolidin-2-one] |
| 60.1 | 48.6 | – | Cc1cccc(C2CCN(c3cn[nH]c3)CC2)c1 [Compound 34, 1-(1H-Pyrazol-4-yl)-4-(m-tolyl)piperidine] |
